Data from PMC10574761, “Novel 1,2,3-Triazole-Containing Quinoline–Benzimidazole Hybrids: Synthesis, Antiproliferative Activity, In Silico ADME Predictions, and Docking” (Molecules, 2023).

How the values were obtained:
[1] = system: HeLa (human cervical adenocarcinoma); assay: MTT proliferation assay, HeLa; format: cell-based; settings: 72 h treatment
Protocol: (§1) The effect of the new synthesized compounds was tested on five human tumor cell lines, HeLa (human cervical adenocarcinoma; from ATCC), CaCo-2 (human colorectal adenocarcinoma), HL-60 (acute promyelocytic leukemia), HuT78 (T-cell lymphoma) and THP-1 (acute monocytic leukemia), and on one non-tumor cell line, MRC-5 (human fetal lung fibroblasts). The MRC-5 cells were used between 24 and 26 passages. The cells were cultured in two different types of media: DMEM (Gibco, EU) and RPMI 1640 (Gibco, EU). Both media were supplemented with 2 mM glutamine, fetal bovine serum (10%; heat inactivated) and antibiotics (100 U penicillin and 0.1 mg streptomycin). RPMI 1640 was additionally supplemented with 10 mM HEPES and 1 mM sodium pyruvate. The cells growing in a monolayer were cultured in DMEM, while the cells growing in suspension were cultured in RPMI 1640. The cells were grown in humidified atmosphere under the conditions of 37 °C/5% CO2 gas in the CO2 incubator (IGO 150 CELLlife^TM, JOUAN, Thermo Fisher Scientific, Waltham, MA, USA).
(§2) Growth-inhibitory activity was assessed using a slightly modified procedure based on the National Cancer Institute’s protocol. Briefly, the cells were seeded in 96-well microtiter plates and incubated for 24 h. They were then treated with 10^−7 to 10^−4 M concentrations of the tested compounds for an additional 72 h. After the treatment period, the effects of the tested compounds on the growth rate of the cells were examined using the MTT assay. Absorbance was measured at 595 nm using a microplate reader. […] The selectivity index was calculated according to the following formula: SI=IC50 value of normal cell line/IC50 value of cancer cell line
(§3) The effect of each concentration was analyzed by plotting the logarithm of the concentration of the evaluated compound against the corresponding percentage inhibition value using least squares.

Hut78 (T-cell lymphoma) = assay: MTT proliferation assay, HuT78; format: cell-based, human; settings: for IC50: Homo sapiens, HuT78, 72 h treatment, MTT
Protocol: as §1, §2, §3

HuT78 cells = assay: Cell cycle analysis by flow cytometry (PI staining); format: cell-based, human; settings: 24 h, p < 0.05
Protocol: The cells were exposed to the compounds for 24 h, collected, washed with PBS, fixed with 70% ethanol and stored at −20 °C until analysis. On the day of analysis, the cell pellets were washed twice with PBS, resuspended in 1 mg/mL PI and 0.2 mg/mL RNase A and left in a dark/cold atmosphere for 30 min. The stained cells were analyzed using FACSCalibur (Becton Dickinson, Franklin Lakes, NJ, USA) flow cytometer. Tests were performed in duplicate and repeated twice. FlowJo software, version 10.2., was adapted for the analysis of DNA histograms.
[…] 13.5 (TIBCO Software Inc., Tulsa, USA) was used for the statistical analysis of the results. Student’s t test was used for data analysis. Differences were considered statistically significant at p < 0.05.

[2] = system: MRC-5 (human fetal lung fibroblasts, non-tumor); assay: MTT proliferation assay, MRC-5; format: cell-based; settings: MRC5, 72 h treatment
Protocol: as §1, §2, §3

[3] = system: THP-1 (acute monocytic leukemia); assay: MTT proliferation assay, THP-1; format: cell-based, human; settings: for IC50: Homo sapiens, THP-1, 72 h treatment, MTT
Protocol: as §1, §2, §3

[4] = system: CaCo-2 (human colorectal adenocarcinoma); assay: MTT proliferation assay, CaCo-2; format: cell-based; settings: 72 h treatment
Protocol: as §1, §2, §3

[5] = system: HL-60 (acute promyelocytic leukemia); assay: MTT proliferation assay, HL-60; format: cell-based; settings: Homo sapiens, 72 h treatment
Protocol: as §1, §2, §3

[6] = SI = IC50 of normal cell line (MRC-5) / IC50 of cancer cell line

Structure (SMILES) | IC50 [1] | IC50 (Hut78 (T-cell lymphoma)) | increase in the aggregation of cells in the subG0/G1 phase (HuT78 cells; HuT-78, 5 µM) | IC50 [2] | IC50 [3] | IC50 [4] | IC50 [5] | selectivity index (SI) for HuT78 cells (Hut78 (T-cell lymphoma); [6]) | melting point | enrichment of the S fraction compared to control cells (HuT78 cells; HuT-78, 0.5 µM) | selectivity index (SI) for THP-1 cells [3, 6] | increase of the proportion of cells in subG0/G1 phase compared to untreated cells (HuT78 cells; HuT-78, 5 µM)
CCCNC(=N)c1ccc2[nH]c(-c3ccc(OCc4cn(-c5ccnc6cc(Cl)ccc56)nn4)c(Br)c3)nc2c1.Cl.Cl.Cl [Compound 10e, 2-(3-bromo-4-{[1-(7-chloroquinolin-4-yl)-1H-1,2,3-triazol-4-yl]methoxy}phenyl)-N-propyl-1H-benzo[d]imidazol-5-carboximidamide trihydrochloride] | > 100 µM | 9.68 µM | more than threefold | > 100 µM | > 100 µM | > 100 µM | 93.2 µM | – | – | – | – | –
COc1ccc2[nH]c(-c3ccc(OCc4cn(-c5ccnc6cc(Cl)ccc56)nn4)cc3)nc2c1 [Compound 9c, 7-chloro-4-(4-{[4-(5-methoxy-1H--benzo[d]imidazol-2-yl)phenoxy]methyl}-1H-1,2,3-triazol-1-yl)quinoline] | 7.53 µM | 0.2 µM | – | 2.71 µM | 0.18 µM | 8.3 µM | 1.02 µM | 13.55 | 85 to 86 °C | 31% | 15 | –
CCCNC(=N)c1ccc2[nH]c(-c3ccc(OCc4cn(CCNc5ccnc6cc(Cl)ccc56)nn4)cc3)nc2c1.Cl.Cl.Cl [Compound 14e, 2-{4-[(1-{2-[(7-chloroquinolin-4-yl)amino]ethyl}-1H-1,2,3-triazol-4-yl)methoxy]phenyl}-N-propyl-1H-benzo[d]imidazol-5-carboximidamide trihydrochloride] | > 100 µM | 10.9 µM | – | > 100 µM | > 100 µM | > 100 µM | > 100 µM | – | 209 to 211 °C | – | – | 68%
CCCNC(=N)c1ccc2[nH]c(-c3ccc(OCc4cn(CCNc5ccnc6cc(Cl)ccc56)nn4)c(Br)c3)nc2c1.Cl.Cl.Cl [Compound 15e, 2-{3-bromo-4-[(1-{2-[(7-chloroquinolin-4-yl)amino]ethyl}-1H-1,2,3-triazol-4-yl)methoxy]phenyl}-N-propyl-1H-benzo[d]imidazol-5-carboximidamide trihydrochloride] | > 100 µM | 7.83 µM | – | > 100 µM | > 100 µM | > 100 µM | > 100 µM | – | 169 to 171 °C | – | – | 36%
